Assay type in all cases: biochemical
One assay has as its target T1, MMP 1 (Homo sapiens, UniProt P03956).
T1 construct: human recombinant fibroblast collagenase (truncated, mw= 18,828, WAR, Radnor)
T1 sequence (P03956 100-269 limits assumed): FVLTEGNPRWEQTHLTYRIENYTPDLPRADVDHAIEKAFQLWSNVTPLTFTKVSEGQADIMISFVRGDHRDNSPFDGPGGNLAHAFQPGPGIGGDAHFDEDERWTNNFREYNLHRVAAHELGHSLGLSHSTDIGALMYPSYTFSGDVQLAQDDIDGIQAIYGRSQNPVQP
Put plainly: In Vitro Collagenase Assay. The note with it: human recombinant fibroblast collagenase; for IC50: read-out: MMP 1 IC 50; for inhibition at 1 µM: read-out: MMP 1 % inhibition at 1 micromolar, 1 micromolar. Here is the method:
The assay is based on the cleavage of a peptide substrate ((Dnp-Pro-Cha-Gly-Cys(Me)-His-Ala-Lys(NMa)-NH2), Peptide International, Inc.) by collagenase releasing the fluorescent NMa group which is quantitated on the fluorometer. Dnp quenches the NMa fluorescence in the intact substrate. […] Substrate is dissolved in methanol and stored frozen in 1 mM aliquots. […] For the assay, substrate is dissolved in HCBC buffer to a final concentration of 10 µM and collagenase to a final concentration of 5 nM. Compounds are dissolved in methanol, DMSO, or HCBC. The methanol and DMSO are diluted in HCBC to < 1.0%. Compounds are added to the 96 well plate containing enzyme and the reaction is started by the addition of substrate.
The slope of the line is calculated and represents the reaction rate.
The linearity of the reaction rate is confirmed (r^2 >0.85). The mean (x ± sem) of the control rate is calculated and compared for statistical significance (p <0.05) with drug-treated rates using Dunnett's multiple comparison test.

For the next assay, the target named is T2, MMP 9 (Homo sapiens, UniProt P14780).
T2 construct: from tissue; host or cells: human neutrophils
T2 sequence (P14780 94-707): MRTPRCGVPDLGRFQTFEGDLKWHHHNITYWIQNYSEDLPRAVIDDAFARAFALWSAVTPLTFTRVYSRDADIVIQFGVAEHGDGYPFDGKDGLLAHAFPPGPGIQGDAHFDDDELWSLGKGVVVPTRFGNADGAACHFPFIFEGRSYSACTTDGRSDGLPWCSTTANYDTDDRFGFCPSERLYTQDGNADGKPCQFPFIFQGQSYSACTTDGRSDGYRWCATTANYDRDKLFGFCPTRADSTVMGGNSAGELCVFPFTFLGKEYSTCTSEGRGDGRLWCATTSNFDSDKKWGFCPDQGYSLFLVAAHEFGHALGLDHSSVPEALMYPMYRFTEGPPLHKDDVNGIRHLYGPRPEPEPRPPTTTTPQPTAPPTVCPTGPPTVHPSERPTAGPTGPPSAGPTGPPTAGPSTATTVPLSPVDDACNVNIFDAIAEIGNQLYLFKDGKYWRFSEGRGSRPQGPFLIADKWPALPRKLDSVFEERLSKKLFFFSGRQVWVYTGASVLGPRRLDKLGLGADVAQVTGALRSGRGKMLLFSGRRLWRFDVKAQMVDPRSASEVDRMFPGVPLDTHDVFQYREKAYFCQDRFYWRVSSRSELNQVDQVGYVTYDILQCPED
In words: In Vitro Gelatinase Assay. The note with it: human neutrophil gelatinase B; for IC50: read-out: MMP 9 IC 50; for inhibition at 1 µM: read-out: MMP 9 % inhibition at 1 micromolar, 1 micromolar. Here is the method:
The assay is based on the cleavage of the thiopeptide substrate ((Ac-Pro-Leu-Gly(2 mercapto-4 methyl-pentanoyl)-Leu-Gly-OEt), Bachem Bioscience) by the enzyme, gelatinase, releasing the substrate product which reacts colorimetrically with DTNB ((5,5'-dithio-bis(2-nitro-benzoic acid)). The enzyme activity is measured by the rate of the color increase. The thiopeptide substrate is made up fresh as a 20 mM stock in 100% DMSO and the DTNB is dissolved in 100% DMSO as a 100 mM stock and stored in dark at room temperature. Both the substrate and DTNB are diluted together to 1 mM with substrate buffer (50 mM HEPES pH 7.5, 5 mM CaCl2) before use. […] The increase in OD405 is plotted and the slope of the line is calculated which represents the reaction rate. The linearity of the reaction rate is confirmed (r^2 >0.85). The mean (x ± sem) of the control rate is calculated and compared for statistical significance (p <0.05) with drug-treated rates using Dunnett's multiple comparison test.

For the next assay, the target named is MMP 13 (Homo sapiens, UniProt P45452). Put plainly: MMP 13 inhibition (IC50 / manual assay; method not described). Conditions: for IC50: read-out: MMP 13 IC 50; for inhibition at 1 µM: read-out: MMP 13 % inhibition at 1 micromolar.
Another assay deals with T3, TACE (Homo sapiens, UniProt P78536).
T3 construct: purchased Immunex
T3 sequence (P78536 215-824): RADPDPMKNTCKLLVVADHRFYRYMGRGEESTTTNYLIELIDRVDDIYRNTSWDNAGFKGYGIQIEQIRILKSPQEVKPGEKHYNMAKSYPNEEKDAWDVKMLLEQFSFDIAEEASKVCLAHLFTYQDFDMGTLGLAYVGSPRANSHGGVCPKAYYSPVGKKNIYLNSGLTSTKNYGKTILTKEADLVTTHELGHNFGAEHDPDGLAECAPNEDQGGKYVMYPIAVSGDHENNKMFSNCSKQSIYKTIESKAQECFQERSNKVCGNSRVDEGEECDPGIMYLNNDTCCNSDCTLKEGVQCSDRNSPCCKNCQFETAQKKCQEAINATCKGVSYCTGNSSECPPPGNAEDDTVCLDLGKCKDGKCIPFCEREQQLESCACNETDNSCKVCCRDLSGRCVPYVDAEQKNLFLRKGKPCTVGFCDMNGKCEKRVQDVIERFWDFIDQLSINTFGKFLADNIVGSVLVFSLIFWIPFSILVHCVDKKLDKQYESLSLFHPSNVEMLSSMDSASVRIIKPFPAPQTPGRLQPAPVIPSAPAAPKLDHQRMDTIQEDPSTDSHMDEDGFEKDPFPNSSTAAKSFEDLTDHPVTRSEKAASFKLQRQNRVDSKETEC
In words: Procedure for Measuring TACE Inhibition. The note with it: for inhibition at 1 µM: read-out: TACE % inhibition at 1 micromolar. In outline:
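Single-concentration screen: test compound at 1 µM final, 10-min room-temperature preincubation with 1 µg/mL protease in Tris pH 7.4 buffer containing glycerol. Initial rate from linear fluorescence increase (340/420 nm) over 10 min after adding 100 µM peptidyl substrate; significance versus control rate by Dunnett's test.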

Read-outs that look alike come from different tables or passages of the source.

With `CCCCC[C@H](C(=O)NO)[S@+]([O-])c1ccc(OC)cc1` (stereo in doubt) [Example 81a, 2R*-(4-methoxy-phenyl-S*- sulfinyl)-heptanoic acid hydroxyamide], the figures for the IC50 on MMP 1, on MMP 9 and on MMP 13 were 2.04 µM, 0.231 µM and 0.0439 µM, respectively.

For the compound `CCCCC[C@@H](C(=O)NO)[S@@+]([O-])c1ccc(OC)cc1` (stereo in doubt) [Example 81b, 2S*-(4-methoxy-phenyl-R*- sulfinyl)-heptanoic acid hydroxyamide], the IC50 on MMP 1 is 3.77 µM; on MMP 9, 0.154 µM; at MMP 13, 0.0157 µM; on TACE (read-out: TACE IC 50), 0.228 µM.

For orientation: inhibition means the relative decrease from the control value, in per cent. For `COc1ccc(SC(C(=O)NO)C(C)C)cc1` (centres unmarked) [Example 4, N-Hydroxy-2-(4-methoxy-phenylsulfanyl)-3-methyl-butyramide], on MMP 1, the IC50 is 0.371 µM. Moreover, the inhibition at 1 µM at MMP 9 came to 22.2%; at MMP 13, 17.1%; on TACE, 21%.

Take `COc1ccc([S+]([O-])C(C)(CC=C(C)C)C(=O)NO)cc1` (centres unmarked) [Example 6, 2-(4-Methoxy-benzenesulfinyl)-2,5-dimethyl-hex-4-enoic acid hydroxyamide]: the IC50 on MMP 1 was 0.267 µM; on MMP 9, 0.0214 µM; on MMP 13, 0.0156 µM. The inhibition at 1 µM at TACE amounted to 40.4%.

For the compound `COc1ccc([S+]([O-])C(C(=O)NO)C(C)C)cc1` (centres unmarked) [Example 7, N-Hydroxy-2-(4-methoxy-benzenesulfinyl)-3-methyl-butyramide], the figures for the IC50 at MMP 1, at MMP 9 and at MMP 13 were 0.844 µM, 0.0729 µM and 0.0421 µM, respectively. The inhibition at 1 µM at TACE turned out to be 33%.

In the case of `COc1ccc(S(=O)(=O)C(C)(CC=C(C)C)C(=O)NO)cc1` (centres unmarked) [Example 13, 2-(4-Methoxy-benzenesulfonyl)-2,5-dimethyl-hex-4-enoic acid hydroxyamide], the IC50 came to 0.239 µM at MMP 1, 0.011 µM on MMP 9, 0.014 µM on MMP 13 and 0.626 µM on TACE (read-out: TACE IC 50).

Turning to `COc1ccc(S(=O)(=O)C(C)(CC=C(C)CCC=C(C)C)C(=O)NO)cc1` (centres unmarked) [Example 15, 2-(4-methoxy-benzenesulfonyl)-2,5,9-trimethyl-deca-4,8-dienoic acid hydroxyamide], the IC50 was determined as 0.285 µM at MMP 1, 0.017 µM on MMP 9, 0.004 µM at MMP 13 and 0.137 µM at TACE (read-out: TACE IC 50).

As for `COc1ccc(S(=O)(=O)C(C)(CC2CCCCC2)C(=O)NO)cc1` (centres unmarked) [Example 16, 3-Cyclohexyl-N-hydroxy-2-(4-methoxy-benzenesulfonyl)-2-methyl-propionamide], the IC50 on MMP 1 was found to be 0.325 µM; at MMP 9, 0.009 µM; at MMP 13, 0.024 µM; on TACE (read-out: TACE IC 50), 0.18 µM.

As for `COc1ccc(S(=O)(=O)C(CC=C(C)C)(Cc2ccc(OCCN3CCOCC3)cc2)C(=O)NO)cc1` (centres unmarked) [Example 24, 2-(4-Methoxy-benzenesulfonyl)-5-methyl-2-[4-(2-morpholin-4-yl-ethoxy)-benzyl]-hex-4-enoic acid hydroxyamide], the IC50 amounted to 0.413 µM at MMP 1, 0.0209 µM on MMP 9 and 0.0313 µM on MMP 13.

Regarding `COc1ccc(S(=O)(=O)C(C/C=C(\C)CCC=C(C)C)(Cc2ccc(OCCN3CCOCC3)cc2)C(=O)NO)cc1` (centres unmarked) [Example 26, (4E)-2-(4-Methoxy-benzenesulfonyl)-5,9-dimethyl-2-[4-(2-morpholin-4-yl-ethoxy) - benzyl]-deca-4,8-dienoic acid hydroxyamide], the values for the IC50 at MMP 1, at MMP 9 and on MMP 13 were 0.305 µM, 0.0063 µM and 0.0032 µM, respectively.

Consider `CCCCC(Cc1ccc(OCCN(CC)CC)cc1)(C(=O)NO)S(=O)(=O)c1ccc(OC)cc1` (centres unmarked) [Example 27, 2-[4-(2-Diethylamino-ethoxy)-benzyl]-2-(4-methoxy-benzenesulfonyl)-hexanoic acid hydroxyamide], for which the IC50 on MMP 1 turned out to be 0.629 µM; on MMP 9 it was 0.106 µM; on MMP 13, 0.0301 µM.

On to `CCN(CC)CCOc1ccc(CC(C)(C(=O)NO)S(=O)(=O)c2ccc(-c3ccco3)cc2)cc1` (centres unmarked) [Example 32, 3-[4-(2-Diethylamino-ethoxy)-phenyl]-2-(4-furan-2-yl-benzenesulfonyl)-N-hydroxy-2-methyl-propionamide], for which the figures for the IC50 on MMP 1, at MMP 9 and on MMP 13 were 0.0137 µM, 0.0037 µM and 0.001 µM, respectively.

`CCCC(Cc1ccc(OCCN2CCOCC2)cc1)(C(=O)NO)S(=O)(=O)c1ccc(OC)cc1` (centres unmarked) [Example 35, 2-(4-Methoxy-benzenesulfonyl)-2-[4-(2-morpholin-4-yl-ethoxy)-benzyl]-pentanoic acid hydroxyamide]: the values for the IC50 at MMP 1, on MMP 9 and at MMP 13 were 0.456 µM, 0.234 µM and 0.0482 µM, respectively.

Turning to `CCCCCCC(Sc1ccc(OC)cc1)C(=O)NO` (centres unmarked) [Example 37, 2-(4-Methoxy-benzenesulfanyl)-octanoic acid hydroxyamide], the values for the inhibition at 1 µM at MMP 1, on MMP 9 and on MMP 13 were 9%, 31.6% and 14.3%, respectively.

`CCCCCCC(Sc1nccn1C)C(=O)NO` (centres unmarked) [Example 39, 2-(1-methyl-1H-imidazol-2-ylsulfanyl)-octanoic acid hydroxyamide]: the inhibition at 1 µM came out at 29.4% at MMP 1, 35.2% on MMP 9 and 26.6% at MMP 13.

Take `CC(C(=O)O)S(=O)(=O)CCCCCCCCS(=O)(=O)C(C)C(=O)NO` (centres unmarked) [Example 49, 2-[8-(1-carboxy-ethanesulfonyl)-octane-1-sulfonyl]-propionic acid hydroxyamide]: the inhibition at 1 µM on MMP 1 came out at 10.1%; at MMP 9, 23.7%; on MMP 13, 54.6%.

Regarding `COc1ccc(S(=O)(=O)C(CCC(C)C)(Cc2cccnc2)C(=O)NO)cc1` (centres unmarked) [Example 69, 2-(4-Methoxy-benzenesulfonyl)-5-methyl-2-pyridin-3-ylmethyl-hexanoic acid hydroxyamide], the IC50 on MMP 1 stood at 0.575 µM; on MMP 13, 0.09 µM. Moreover, the inhibition at 1 µM at TACE came out at 41.3%.

As for `CC#CCC(Cc1cccnc1)(C(=O)NO)S(=O)(=O)c1ccc(F)cc1` (centres unmarked) [Example 76, 2-(4-Fluoro-benzenesulfonyl)-2-pyridin-3-ylmethyl-hex-4-ynoic acid hydroxyamide], the IC50 on MMP 1 was 0.805 µM; on MMP 13, 0.5 µM.

As for `CCCCCC#CCC(Cc1cccnc1)(C(=O)NO)S(=O)(=O)c1ccc(F)cc1` (centres unmarked) [Example 77, 2-(4-Fluoro-benzenesulfonyl)-2-pyridin-3-ylmethyl-dec-4-ynoic acid hydroxyamide], the IC50 on MMP 1 was determined as 0.206 µM; on MMP 13, 0.17 µM.

As to `COc1ccc(S(=O)(=O)C2(C(=O)NO)CCN(C(C)(C)C)CC2)cc1` [Example 92, 1-Tert-butyl-4-(4-methoxy-benzenesulfonyl)-piperidine-4-carboxylic acid hydroxyamide], the inhibition at 1 µM on MMP 1 came to 59.6%. Further, the IC50 at MMP 9 came to 0.649 µM; at MMP 13, 0.148 µM.

Take `COc1ccc(S(=O)(=O)C2(C(=O)NO)CCN(C(C)C)CC2)cc1` [Example 96, 1-Isopropyl-4-(4-methoxy-benzenesulfonyl)-piperidine-4-carboxylic acid hydroxyamide]: the IC50 at MMP 1 was 4.44 µM; at MMP 9, 0.374 µM; on MMP 13, 0.0338 µM.

In the case of `COc1ccc(S(=O)(=O)C2(C(=O)NO)CCN(CCc3ccccc3)CC2)cc1` [Example 103, 4-(4-methoxy-benzenesulfonyl)-1-(2-phenyl-ethyl)-piperidine-4-carboxylic acid hydroxyamide], the IC50 at MMP 9 was 0.0451 µM; on MMP 13, 0.0088 µM; against TACE it was 0.47 µM.
